Source: article PMC9737972, “Dual LSD1 and HDAC6 Inhibition Induces Doxorubicin Sensitivity in Acute Myeloid Leukemia Cells” (Cancers, 2022)

Assays:
[1] = target: T1, HDAC8 (Homo sapiens, UniProt Q9BY41); test: Cellular thermal shift assay (CETSA), HDAC8; assay type: cell-based; settings: THP-1 cells, 1 h; 4 μM (methods, Figure 2), Figure S14 legend 500 nM
T1 construct: endogenous in cells; host or cells: THP-1
T1 sequence (Q9BY41 1-377): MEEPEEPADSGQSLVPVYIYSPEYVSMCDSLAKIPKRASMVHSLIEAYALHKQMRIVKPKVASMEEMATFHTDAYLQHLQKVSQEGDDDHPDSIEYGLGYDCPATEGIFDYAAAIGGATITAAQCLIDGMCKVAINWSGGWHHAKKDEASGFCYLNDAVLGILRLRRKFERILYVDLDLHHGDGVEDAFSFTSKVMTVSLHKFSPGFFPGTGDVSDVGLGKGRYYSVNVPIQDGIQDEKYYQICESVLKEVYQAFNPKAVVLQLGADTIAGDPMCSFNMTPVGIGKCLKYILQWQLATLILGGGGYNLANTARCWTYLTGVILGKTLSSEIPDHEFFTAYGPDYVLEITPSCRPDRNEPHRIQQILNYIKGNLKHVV
Protocol: THP-1 cells, 1 × 10^7 cells at a density of 1 × 10^6 cells/mL, were treated with 4 μM of test compounds (1 h, 37 °C, 5% CO2). Cells were centrifuged, and the pellet was resuspended with 1 × Phosphate Buffer Saline (Gibco, Grand Island, NY, USA, #10010023) containing 1 × Protease Inhibitor Cocktail (Cell Signaling Technology, Beverly, MA, USA, #5871) and 1 mM phenylmethylsulfonyl fluoride (PMSF, Sigma Aldrich, St. Louis, MO, USA, #10837091001). The suspension volume was divided equally and heated for 3 min at 43–64 °C in a T100 Thermal Cycler (Bio-rad, Hercules, CA, USA). For protein extraction, cells were snap-frozen using liquid nitrogen, thawed twice (25 °C, 1 min), then centrifuged (20,000× g, 15 min, 4 °C). Following centrifugation, protein containing supernatants were denatured at 70 °C for 10 min and loaded on SDS-PAGE gels (Bio-Rad, Hercules, CA, USA, 161-0317). […] The signal was detected with BIORAD Chemi-Doc XRS+ System and by using Immobilon Forte Western HRP Substrate (WBLUF0500).

[2] = tested on: normal RPE-1 cells; test: Cell viability of normal RPE-1 cells (CTG); assay type: cell-based; settings: 120 h
[3] = tested on: THP-1 cells; test: Combination treatment with antileukemic drugs, THP-1 cell viability; assay type: cell-based; settings: compound 5 μM 72 h, then compound + etoposide 0.2 μM 48 h
[4] = target: LSD1 (Homo sapiens, UniProt O60341); test: LSD1 MALDI-TOF enzyme assay; assay type: biochemical; design: made in house; settings: ± standard error, three independent measurements

Row | Compound | thermal stabilization of HDAC8 (CETSA) [1] | toxicity on normal RPE-1 cells [2] | cell viability after pre-treatment with compound and co-treatment with etoposide [3] | IC50 [4] [µM]
1 | O=C(NO)c1ccc(CN2CCC(CN[C@@H]3C[C@H]3c3ccccc3)CC2)cc1 (relative stereo) [iDual] | not significantly stabilized | no significant toxicity | decreased cell viability was not observed | –
2 | O=C(NO)c1ccc(CN2CCC(CNC3(c4ccccc4)CC3)CC2)cc1 [iHDAC6] | – | – | – | > 100
